Broadly, the EC50 is the concentration giving half of the maximal effect.

A short description of series [1]: in vitro. Particulars: African green monkey; for CC50 at 4 days: uninfected quiescent Vero-B cells.
For series [2], the system named is DENV-2 NGC. Briefly: Antiviral activity against DENV-2 NGC in Vero-B cells (viral RNA load by RT-qPCR). Particulars: Dengue virus, DENV2, Vero B, DENV-2 in Vero-B cells; inhibition of viral RNA replication by 50% (Table 3). It is filed as cell-based, Dengue virus. Background: Quantitative PCR measures a nucleic acid by following its amplification.

Structures are written as SMILES. A value given as a limit tells only on which side of the number the result lay.

Regarding `COc1cc(NC(C(=O)c2cn(C)c3c(CCO)cccc23)c2ccccc2)cc(OC)c1` (centres unmarked) [CPD-358], the CC50 at 4 days in series [1] amounted to 63 µM. This compound also gave a concentration for a half-maximal effect (EC50) in series [2] of 0.18 µM.

`O=C(c1c[nH]c2ccccc12)C(NCC1COc2ccccc2O1)c1ccccc1` (centres unmarked) [CPD-190]: in series [1], the CC50 at 4 days worked out at 11 µM. In series [2], this compound displayed an EC50 of 1.71 µM.

On to `CCCN1CCC(NC(C(=O)c2c[nH]c3ccccc23)c2ccccc2)CC1` (centres unmarked) [CPD-184], for which the CC50 at 4 days in series [1] came out at 70 µM. Besides, the EC50 in series [2] is 22.4 µM.

In series [1], `COc1cccc(NC(C(=O)c2c[nH]c3ccccc23)c2ccc(-c3cncnc3)cc2)c1` (centres unmarked) [CPD-048] had a CC50 at 4 days above 115 µM. The same compound had an EC50 in series [2] of 2.09 µM.

Take `O=C(c1c[nH]c2ccccc12)C(Nc1cccc(Cl)c1)c1ccccc1` (centres unmarked) [CPD-006]: in series [1], the CC50 at 4 days amounted to 6 µM. The EC50 in series [2] was found to be 0.75 µM.

As for `COc1ccc2c(C(=O)C(Nc3ccnc(OC)c3)c3ccccc3)c[nH]c2c1` (centres unmarked) [CPD-076], the CC50 at 4 days in series [1] stood at 115 µM. Also, a half-maximal effect in series [2] (EC50) was put at 3.77 µM.

In series [1], `COc1cccc(NC(C(=O)c2c[nH]c3cccc(C)c23)c2ccccc2)c1` (centres unmarked) [CPD-251] gave a CC50 at 4 days of 14 µM. For the same compound, in series [2], the EC50 came to 0.07 µM.

Regarding `COc1cccc(NC(C(=O)c2c[nH]c3ccccc23)c2cccs2)c1` (centres unmarked) [CPD-024], the CC50 at 4 days in series [1] was determined as 14 µM. The compound also had an EC50 in series [2] of 0.5 µM.

As to `COc1cccc(NC(C(=O)c2c[nH]c3ccncc23)c2ccccc2)c1` (centres unmarked) [CPD-201], the CC50 at 4 days in series [1] came to 74 µM. The EC50 in series [2] was determined as 12.2 µM.

In turn, `CNC(=O)c1cccc(NC(C(=O)c2c[nH]c3ccccc23)c2ccccc2)c1` (centres unmarked) [CPD-170] registered a CC50 at 4 days in series [1] of 26 µM. This compound also returned an EC50 in series [2] of 0.44 µM.

For `COc1cccc(NC(C(=O)c2c[nH]c3ccccc23)c2nccn2C)c1` (centres unmarked) [CPD-026], the CC50 at 4 days in series [1] is above 138 µM. In series [2], this compound yielded an EC50 of 17.2 µM.

The compound `COc1cc(NC(C(=O)c2c[nH]c3cc(F)ccc23)c2ccccc2)ccn1` (centres unmarked) [CPD-075] gave a CC50 at 4 days in series [1] of 102 µM. Further, the midpoint of the response in series [2], the EC50, lay at 1.52 µM.

As for `CCOc1ccc(NC(C(=O)c2c[nH]c3ccccc23)c2ccccc2)cc1CO` (centres unmarked) [CPD-192], the CC50 at 4 days in series [1] was 50 µM. In series [2], this compound registered an EC50 of 5.62 µM.

In series [1], `COc1cc(NC(C(=O)c2c[nH]c3ccc(Cl)cc23)c2ccccc2)ccn1` (centres unmarked) [CPD-099] registered a CC50 at 4 days of 12 µM. This compound showed an EC50 in series [2] of 1.76 µM.

The compound `COc1cccc(NC(C(=O)c2cn(S(=O)(=O)c3cn(C)cn3)c3ccccc23)c2ccccc2)c1` (centres unmarked) [CPD-209] yielded a CC50 at 4 days in series [1] above 100 µM. The compound further had an EC50 in series [2] of 1.12 µM.

In series [1], `CCS(=O)(=O)n1cc(C(=O)C(Nc2cccc(OC)c2)c2ccccc2)c2ccccc21` (centres unmarked) [CPD-211] registered a CC50 at 4 days above 111 µM. For the same compound, the midpoint of the response in series [2], the EC50, lay at 2.83 µM.

`O=C(O)c1cccc(NC(C(=O)c2c[nH]c3ccccc23)c2ccccc2)c1` (centres unmarked) [CPD-071]: the CC50 at 4 days in series [1] turned out to be 135 µM. In addition, the EC50 in series [2] is 60.9 µM.

In series [1], `COc1cccc(NC(C(=O)c2c[nH]c3cc(C#N)ccc23)c2ccccc2)c1` (centres unmarked) [CPD-094] came in with a CC50 at 4 days of 11 µM. This compound also showed an EC50 in series [2] of 0.14 µM.

As to `COc1cccc(NC(C(=O)c2nn(C)c3ccc(C#N)cc23)c2ccccc2)c1` (centres unmarked) [CPD-275], the CC50 at 4 days in series [1] is above 126 µM. The compound also yielded an EC50 in series [2] of 9.96 µM.

The compound `COc1cccc(NC(C(=O)c2nn(C)c3ccccc23)c2cnc(OC)cn2)c1` (centres unmarked) [CPD-272] displayed a CC50 at 4 days in series [1] above 124 µM. Moreover, in series [2], the EC50 was determined as 0.47 µM.

`O=C(c1c[nH]c2ccccc12)C(Nc1cccc(-c2cnco2)c1)c1ccccc1` (centres unmarked) [CPD-059] registered a CC50 at 4 days in series [1] of 16 µM. In series [2], this compound returned an EC50 of 1.25 µM.

As for `COc1cc(NC(C(=O)c2c[nH]c3c(CCN(C)C)cccc23)c2ccccc2)cc(OC)c1` (centres unmarked) [CPD-365], in series [1], the CC50 at 4 days was 12 µM. In series [2], this compound gave an EC50 of 2.03 µM.

Turning to `COc1cccc(NC(C(=O)c2c[nH]c3ccccc23)c2cccc(C#N)c2)c1` (centres unmarked) [CPD-041], in series [1], the CC50 at 4 days amounted to 14 µM. The compound also showed an EC50 in series [2] of 0.5 µM.

On to `O=C(c1c[nH]c2ccccc12)C(NC1CCSc2ccccc21)c1ccccc1` (centres unmarked) [CPD-191], for which the CC50 at 4 days in series [1] is 13 µM. In series [2], this compound came in with a half-maximal effective concentration (EC50) of 2.58 µM.

Take `COc1cc(NC(C(=O)c2csc3ccccc23)c2cn3ccccc3n2)ccn1` (centres unmarked) [CPD-199]: the CC50 at 4 days in series [1] is above 120 µM. This compound also yielded an EC50 in series [2] of 24.9 µM.

In turn, `COCCn1cc(C(=O)C(Nc2cccc(OC)c2)c2ccccc2)c2ccccc21` (centres unmarked) [CPD-136] returned a CC50 in series [1] above 120 µM. Besides, in series [2], the 50% effective concentration (EC50) was found to be 0.22 µM.

Regarding `COc1cccc(NC(C(=O)c2c[nH]c3ccccc23)c2cccnc2OC)c1` (centres unmarked) [CPD-215], the CC50 at 4 days in series [1] was 14 µM. In series [2], this compound yielded a 50% effective concentration (EC50) of 0.16 µM.

As for `COc1cccc(NC(C(=O)c2c[nH]c3cnccc23)c2ccccc2)c1` (centres unmarked) [CPD-200], the CC50 at 4 days in series [1] came out at 54 µM. In series [2], the EC50 worked out at 2.24 µM.

In series [1], `COc1cccc(NC(C(=O)c2c[nH]c3ccccc23)c2cccc(-c3cncnc3)c2)c1` (centres unmarked) [CPD-054] displayed a CC50 at 4 days above 115 µM. The same compound had an EC50 in series [2] of 2.09 µM.

Regarding `COC(=O)c1ccc2c(C(=O)C(Nc3cccc(OC)c3)c3ccccc3)c[nH]c2c1` (centres unmarked) [CPD-085], the CC50 at 4 days in series [1] stood at 16 µM. This compound returned an EC50 in series [2] of 0.07 µM.

In series [1], `COc1cc(NC(C(=O)c2c[nH]c3ccccc23)c2cn3c(F)cccc3n2)ccn1` (centres unmarked) [CPD-081] showed a CC50 at 4 days of 50 µM. Besides, in series [2], the EC50 amounted to 10.8 µM.

In series [1], `CNS(=O)(=O)c1cccc(NC(C(=O)c2c[nH]c3ccccc23)c2ccccc2)c1` (centres unmarked) [CPD-052] gave a CC50 at 4 days of 52 µM. This compound showed an EC50 in series [2] of 3.72 µM.

`COc1cccc(NC(C(=O)c2n[nH]c3ccccc23)c2ccccc2)c1` (centres unmarked) [CPD-198] came in with a CC50 at 4 days in series [1] of 16 µM. Further, in series [2], the EC50 came to 0.14 µM.

Compound `COc1cccc(NC(C(=O)c2c[nH]c3ccccc23)c2ncc[nH]2)c1` (centres unmarked) [CPD-028] showed a CC50 at 4 days in series [1] above 144 µM. This compound also showed a concentration for a half-maximal effect (EC50) in series [2] of 135 µM.

`COc1cc(NC(C(=O)c2c[nH]c3ccccc23)c2ccc3[nH]ccc3c2)ccn1` (centres unmarked) [CPD-097]: the CC50 at 4 days in series [1] turned out to be 12 µM. In series [2], this compound returned an EC50 of 2.32 µM.

Compound `COc1cccc(NC(C(=O)c2c[nH]c3ccccc23)c2[nH]cnc2C)c1` (centres unmarked) [CPD-125] registered a CC50 at 4 days in series [1] above 138 µM. Further, in series [2], the EC50 worked out at 7.19 µM.

Take `COc1cc(NC(C(=O)c2c[nH]c3c(CCO)cccc23)c2ccc(F)cc2)cc(OC)c1` (centres unmarked) [CPD-371]: the CC50 at 4 days in series [1] came to 12 µM. Also, the EC50 in series [2] was found to be 0.03 µM.

In series [1], `COc1cc(CN(C)C)cc(NC(C(=O)c2c[nH]c3ccccc23)c2ccccc2)c1` (centres unmarked) [CPD-263] registered a CC50 at 4 days of 13 µM. Further, the EC50 in series [2] is 2.18 µM.

Regarding `CN(Cc1ccco1)C(C(=O)c1c[nH]c2ccccc12)c1ccccc1` (centres unmarked) [CPD-189], the CC50 at 4 days in series [1] is above 145 µM. The compound also displayed an EC50 in series [2] of 0.93 µM.

For the compound `COc1cc(NC(C(=O)c2cn(S(C)(=O)=O)c3ccccc23)c2ccccc2)ccn1` (centres unmarked) [CPD-121], the CC50 at 4 days in series [1] is 60 µM. The same compound registered an EC50 in series [2] of 5.76 µM.

Turning to `COc1cccc(NC(C(=O)c2c[nH]c3ccccc23)c2cnn(C)c2)c1` (centres unmarked) [CPD-042], in series [1], the CC50 at 4 days is above 138 µM. The compound further gave an EC50 in series [2] of 12.5 µM.

As for `COc1cc(C)nc(NC(C(=O)c2c[nH]c3ccccc23)c2ccccc2)n1` (centres unmarked) [CPD-062], the CC50 at 4 days in series [1] is above 134 µM. Also, the EC50 in series [2] is 0.58 µM.

As for `COc1cccc(NC(C(=O)c2cnn3ccccc23)c2ccccc2)c1` (centres unmarked) [CPD-197], the CC50 at 4 days in series [1] is above 139 µM. For the same compound, the EC50 in series [2] was 3.3 µM.

The values are drawn from US12012411B2, “Viral replication inhibitors” (Katholieke Universiteit Leuven, priority 2011, dated 2024).
